Data on 21 compounds can be found in patent US11384060B2, “Amide compounds and use thereof” (ALPHALA CO., LTD., priority 2017, dated 2022).

For one assay, the target named is T1, glucagon receptor (GCGR) (Homo sapiens, UniProt P47871).
T1 construct: expressed in transfected cells; host or cells: CHO-K1 cells overexpressing GCGR (membrane fractions)
Briefly: I125-glucagon binding assay (competition, GCGR membrane fractions). Conditions: competition with I125-glucagon 0.0625 nM, membrane fractions of GCGR overexpressed CHO-K1 cells. As for the experimental part:
I^125-Glucagon Binding Assay
The binding affinity of each compound was evaluated by a competition assay with I^125-glucagon. GCGR membrane fractions were obtained from GCGR overexpressed CHO-K1 cells as a stock of 1 mg/ml concentration. To evaluate the IC50 of compounds binding to GCGR, GCGR membrane fractions were treated with compounds with a serial dilution. The membrane fractions were diluted to 7.5 microgram per well in 70 microliter assay buffer contained 50 mM Tris pH 7.4 and 0.5% (w/v) bovine serum albumin and added into 96 wells plate. The membrane fractions were then mixed with 10 microliter diluted compounds. After 5 minutes pre-incubation, 20 microliter I^125 labeled glucagon (Perkin Elmer) was added into each well at the final concentration of 0.0625 nM. The assay mixtures were incubated at 25° C. for 30 minutes and then transferred onto the Millipore MultiScreen GF/B Plate coated with 0.5% (w/v) Polyethyleneimine. The filter plate was washed with wash buffer contained 50 mM Tris pH 7.4 for 2 times, 300 microliter each time. The residual isotope was detected by Hidex CHAMELEON V micro-beta counter and the IC50 value of each compound binding to GCGR was calculated with non-linear regression.

Assay [1] concerns the target T2, glucagon receptor (GCGR) overexpressed CHO-K1 cells or human primary hepatocytes (Homo sapiens, UniProt P47871).
T2 construct: expressed in transfected cells; host or cells: GCGR overexpressed CHO-K1 cells or human primary hepatocytes (endogenous receptor)
Briefly: Glucagon cAMP inhibition assay (Cisbio cAMP Dynamic 2 HTRF). Type of assay: cell-based. The settings on record: inhibition of glucagon (EC50 concentration) induced cAMP production. As for the experimental part: Glucagon cAMP Inhibition Assay
Downstream secondary messenger cAMP induced by glucagon was detected by Cisbio cAMP Dynamic 2 kit. Testing compounds were each prepared as a dimethyl sulfoxide (DMSO) solution at the concentration of 10 mM. To evaluate the potency of compounds in inhibiting the cAMP production, glucagon receptor (GCGR) overexpressed CHO-K1 cells or human primary hepatocytes were treated with compounds with a serial dilution. The cells were re-suspended in Hank's Balanced Salt solution (HBSS) contained 0.1% (w/v) bovine serum albumin and 800 nM 3-isobutyl-1-methylxanthine (IBMX) and seeded into low volume, 384 wells white plate. The diluted compounds were then added into the plate for 30 minutes pre-incubation where the final DMSO concentration was 1%. The cells were stimulated with glucagon at the concentration equaled to EC50 (an indicium of the concentration of a drug that gives half-maximal response) for 30 minutes at room temperature. After incubation, lysis buffer contain cAMP antibody and fluorescence acceptor were added into each well for additional 60 minutes incubation. Results were recorded by Molecular Devices SpectraMax Paradigm with the HTRF Detection Cartridges and the IC50 value of each compound in inhibiting the cAMP production was calculated with non-linear regression based on the amount of cAMP production.
In general terms: Time-resolved FRET reads energy transfer from a long-lived donor to a nearby acceptor.

T1 sequence (P47871 26-477): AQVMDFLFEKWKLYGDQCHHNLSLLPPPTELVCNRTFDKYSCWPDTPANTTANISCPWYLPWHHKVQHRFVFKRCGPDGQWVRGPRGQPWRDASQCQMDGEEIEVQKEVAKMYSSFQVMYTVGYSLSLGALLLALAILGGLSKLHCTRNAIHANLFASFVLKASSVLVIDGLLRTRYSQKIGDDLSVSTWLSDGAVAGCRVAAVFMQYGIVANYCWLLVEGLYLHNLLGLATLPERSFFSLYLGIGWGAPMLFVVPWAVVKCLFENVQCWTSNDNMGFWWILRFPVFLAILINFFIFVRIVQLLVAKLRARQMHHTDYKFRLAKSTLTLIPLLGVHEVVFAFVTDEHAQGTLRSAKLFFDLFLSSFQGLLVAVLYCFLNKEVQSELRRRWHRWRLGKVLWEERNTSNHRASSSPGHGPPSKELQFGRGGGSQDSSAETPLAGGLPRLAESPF
T2 sequence (P47871 26-477): as above

As usually defined, the IC50 is the concentration needed to halve the response being measured. Lower therefore signals greater potency. `CC[C@H](C)[C@@H](COc1ccc(-c2ccc(Cl)cc2Cl)cc1)Nc1ccc(C(=O)NC[C@@H](O)C(=O)O)cc1` [Compound 1-14, (R)-3-(4-(((2S,3S)-1-((2′,4′-dichloro-[1,1′-biphenyl]-4-yl)oxy)-3-methylpentan-2-yl)amino)benzamido)-2-hydroxypropanoic Acid] registered a half-maximal inhibitory concentration (IC50) on glucagon receptor (GCGR) of 112 nM. The “IC50 cAMP” value in assay [1] was 3553 nM.
Compound `CCCC[C@@H](COc1ccc(-c2ccc(C(F)(F)F)cc2)cc1)Nc1ccc(C(=O)NCCC(=O)O)cc1` [Compound 1-15, (S)-3-(4-((1-((4′-(trifluoromethyl)-[1,1′-biphenyl]-4-yl)oxy)hexan-2-yl)amino)benzamido)propanoic Acid] came in with an IC50 at glucagon receptor (GCGR) of 211 nM. Further, the “IC50 cAMP” value in assay [1] is 338.8 nM.
On glucagon receptor (GCGR), `CCCC[C@@H](COc1ccc(-c2ccc(C(F)(F)F)cc2)cc1)Nc1ccc(C(=O)NCc2nnn[nH]2)cc1` [Compound 1-16, (S)—N-((1H-tetrazol-5-yl)methyl)-4-((1-((4′-(trifluoromethyl)-[1,1′-biphenyl]-4-yl)oxy)hexan-2-yl)amino)benzamide] showed an IC50 of 52 nM. In addition, the “IC50 cAMP” value in assay [1] worked out at 948.8 nM.
The matching figures for `CCCC[C@@H](COc1ccc(-c2ccc(Cl)cc2Cl)cc1)Nc1ccc(C(=O)NCCC(=O)O)cc1` [Compound 1-17, (S)-3-(4-((1-((2′,4′-dichloro-[1,1′-biphenyl]-4-yl)oxy)hexan-2-yl)amino)benzamido)propanoic Acid]: 34 nM and 864.4 nM.
The corresponding values for `CCCC[C@@H](COc1ccc(-c2ccc(Cl)cc2Cl)cc1)Nc1ccc(C(=O)NCc2nnn[nH]2)cc1` [Compound 1-18, (S)—N-((1H-tetrazol-5-yl)methyl)-4-((1-((2′,4′-dichloro-[1,1′-biphenyl]-4-yl)oxy)hexan-2-yl)amino)benzamide] are 31 nM and 1564 nM.
For the compound `CCCC[C@@H](COc1ccc(-c2ccc(C(F)(F)F)cc2Cl)cc1)Nc1ccc(C(=O)NCCC(=O)O)cc1` [Compound 1-19, (S)-3-(4-((1-((2′-chloro-4′-(trifluoromethyl)-[1,1′-biphenyl]-4-yl)oxy)hexan-2-yl)amino)benzamido)propanoic Acid], the half-inhibitory concentration (IC50) on glucagon receptor (GCGR) is 11 nM. Moreover, in assay [1], the “IC50 cAMP” value came out at 93 nM.
The matching figures for `CCCC[C@@H](COc1ccc(-c2ccc(C(F)(F)F)cc2Cl)cc1)Nc1ccc(C(=O)NCc2nnn[nH]2)cc1` [Compound 1-20, (S)—N-((1H-tetrazol-5-yl)methyl)-4-((1-((2′-chloro-4′-(trifluoromethyl)-[1,1′-biphenyl]-4-yl)oxy)hexan-2-yl)amino)benzamide]: 96 nM and 524 nM.
With `CC(C)[C@@H](COc1ccc(-c2ccc(N(C)C)cc2)cc1)Nc1ccc(C(=O)NC[C@@H](O)C(=O)O)cc1` [Compound 1-21, (R)-3-(4-(((S)-1-((4′-(dimethylamino)-[1,1′-biphenyl]-4-yl)oxy)-3-methylbutan-2-yl)amino)benzamido)-2-hydroxypropanoic Acid], the half-inhibitory concentration (IC50) on glucagon receptor (GCGR) was > 30000 nM. Besides, in assay [1], the “IC50 cAMP” value was >30000 nM.
As for `CC(C)[C@@H](COc1ccc(-c2ccc(C(F)(F)F)cc2Cl)cc1)Nc1ccc(C(=O)NCCC(=O)O)cc1` [Compound 1-22, (S)-3-(4-((1-((2′-chloro-4′-(trifluoromethyl)-[1,1′-biphenyl]-4-yl)oxy)-3-methylbutan-2-yl)amino)benzamido)propanoic Acid], the half-maximal inhibitory concentration (IC50) at glucagon receptor (GCGR) turned out to be 70 nM. The “IC50 cAMP” value in assay [1] came out at 14.2 nM.
The matching figures for `O=C(O)CCNC(=O)c1ccc(NC(COc2ccc(-c3cc4ccccc4o3)cc2)c2ccccc2)cc1` (stereo not drawn) [Compound 1-23, 3-(4-((2-(4-(benzofuran-2-yl)phenoxy)-1-phenylethyl)amino)benzamido) propanoic Acid]: 148 nM and 39.8 nM.
The corresponding values for `CC(C)[C@@H](COc1ccc(-c2ccc(C(F)(F)F)cn2)cc1)Nc1ccc(C(=O)NCCC(=O)O)cc1` [Compound 1-24, (S)-3-(4-((3-methyl-1-(4-(5-(trifluoromethyl)pyridin-2-yl)phenoxy)butan-2-yl)amino)benzamido)propanoic Acid] are 134 nM and 187.5 nM.
Regarding `CC(C)[C@@H](COc1ccc(-c2ccc(C(F)(F)F)cc2F)cc1)Nc1ccc(C(=O)NCCC(=O)O)cc1` [Compound 1-25], the IC50 at glucagon receptor (GCGR) amounted to 44 nM. Besides, the “IC50 cAMP” value in assay [1] came out at 90.4 nM.
The corresponding values for `CCCC[C@@H](COc1ccc(-c2ccc(C(F)(F)F)cc2F)cc1)Nc1ccc(C(=O)NCCC(=O)O)cc1` [Compound 1-27, (S)-3-(4-((1-((2′-fluoro-4′-(trifluoromethyl)-[1,1′-biphenyl]-4-yl)oxy)hexan-2-yl)amino)benzamido)propanoic Acid] are 108 nM and 96.5 nM.
On to `O=C(O)CCNC(=O)c1ccc(NC(COc2ccc(-c3ccc(C(F)(F)F)cc3)cc2)c2ccccc2)cc1` (stereo not drawn) [Compound 1-28, 3-(4-((1-phenyl-2-((4′-(trifluoromethyl)-[1,1′-biphenyl]-4-yl)oxy)ethyl)amino)benzamido)propanoic Acid], for which the IC50 at glucagon receptor (GCGR) stood at 150 nM. For the same compound, in assay [1], the “IC50 cAMP” value turned out to be 287.7 nM.
The corresponding values for `CC(C)[C@@H](COc1ccc(-c2ccc(C(F)(F)F)nn2)cc1)Nc1ccc(C(=O)NCCC(=O)O)cc1` [Compound 1-29, (S)-3-(4-((3-methyl-1-(4-(6-(trifluoromethyl)pyridazin-3-yl)phenoxy)butan-2-yl)amino)benzamido)propanoic Acid] are 2790 nM and >30000 nM.
The matching figures for `CCOC(=O)CCNC(=O)c1ccc(N[C@H](COc2ccc(-c3nc4ccccc4s3)cc2)C(C)C)cc1` [Compound 1-30]: 7630 nM and 1214 nM.
The corresponding values for `COC(=O)CCNC(=O)c1ccc(N[C@H](COc2ccc(-c3nc4ccccc4s3)cc2)C(C)C)cc1` [Compound 1-31, Methyl (S)-3-(4-((1-(4-(benzo[d]thiazol-2-yl)phenoxy)-3-methylbutan-2-yl)amino)benzamido)propanoate] are 5770 nM and 83 nM.
Consider `CC(C)[C@@H](COc1ccc(-c2nc3ccccc3s2)cc1)Nc1ccc(C(=O)NCCC(=O)O)cc1` [Compound 1-32, (S)-3-(4-((1-(4-(benzo[d]thiazol-2-yl)phenoxy)-3-methylbutan-2-yl)amino)benzamido)propanoic Acid], for which the 50% inhibitory concentration (IC50) on glucagon receptor (GCGR) stood at 57 nM. Moreover, the “IC50 cAMP” value in assay [1] came to 152 nM.
For the compound `CC(C)[C@@H](COc1ccc(-c2ccc(C(F)(F)F)cc2F)cc1)Nc1ccc(C(=O)NCCS(=O)(=O)O)cc1` [Compound 1-33, (S)-2-(4-((1-((2′-fluoro-4′-(trifluoromethyl)-[1,1′-biphenyl]-4-yl)oxy)-3-methylbutan-2-yl)amino)benzamido)ethane-1-sulfonic Acid], the concentration for half-maximal inhibition (IC50) at glucagon receptor (GCGR) amounted to 1900 nM. In addition, the “IC50 cAMP” value in assay [1] came to 3767 nM.
The corresponding values for `CC(C)[C@H](COc1ccc(-c2cc3ccccc3o2)cc1)Nc1ccc(C(=O)NCCC(=O)O)cc1` [Compound 1-34, (R)-3-(4-((1-(4-(benzofuran-2-yl)phenoxy)-3-methylbutan-2-yl)amino)benzamido) propanoic Acid] are 113 nM and 238.7 nM.
The matching figures for `CC(C)[C@H](COc1ccc(-c2ccc(C(F)(F)F)cc2Cl)cc1)Nc1ccc(C(=O)NCCC(=O)O)cc1` [Compound 1-35]: 145 nM and 209.3 nM.
